Results published in patent US8044198B2, “Sirtuin modulating compounds” (Sirtris Pharmaceuticals, Inc., priority 2005, dated 2011).
Read-outs that look alike come from different tables or passages of the source.

Tests used:
SIRT1 [1] = target: T1, SIRT1 (Homo sapiens, UniProt Q96EB6); assay: SIRT1 fluorescence polarization (FP) deacetylation assay with p53-based peptide substrates; assay type: biochemical; conditions: Sirt1 Inhibitors
T1 sequence (Q96EB6 1-747): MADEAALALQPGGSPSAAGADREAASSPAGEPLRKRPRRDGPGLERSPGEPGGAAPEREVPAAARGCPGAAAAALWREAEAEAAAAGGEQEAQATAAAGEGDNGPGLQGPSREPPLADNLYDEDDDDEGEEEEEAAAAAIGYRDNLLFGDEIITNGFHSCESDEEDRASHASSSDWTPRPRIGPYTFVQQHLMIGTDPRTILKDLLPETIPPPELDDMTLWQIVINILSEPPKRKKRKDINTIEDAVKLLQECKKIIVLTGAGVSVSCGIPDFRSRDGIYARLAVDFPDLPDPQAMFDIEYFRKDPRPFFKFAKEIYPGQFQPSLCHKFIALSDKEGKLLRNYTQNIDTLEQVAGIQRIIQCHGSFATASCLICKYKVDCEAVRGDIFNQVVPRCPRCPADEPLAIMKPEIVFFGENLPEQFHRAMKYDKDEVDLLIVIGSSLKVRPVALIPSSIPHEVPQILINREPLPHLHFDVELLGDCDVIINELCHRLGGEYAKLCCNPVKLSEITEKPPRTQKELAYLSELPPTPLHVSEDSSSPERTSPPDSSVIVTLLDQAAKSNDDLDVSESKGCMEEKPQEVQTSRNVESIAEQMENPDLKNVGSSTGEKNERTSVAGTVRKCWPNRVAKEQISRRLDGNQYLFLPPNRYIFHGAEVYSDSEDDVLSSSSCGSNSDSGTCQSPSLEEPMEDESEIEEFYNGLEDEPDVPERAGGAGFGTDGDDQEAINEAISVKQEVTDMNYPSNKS
Procedure: A fluorescence polarization or mass spectrometry based assay was used to identify modulators of SIRT1 activity. The same assay may be used to identify modulators of any sirtuin protein. The fluorescence polarization assays utilizes one of two different peptides based on a fragment of p53, a known sirtuin deacetylation target. Compounds 1-18 were tested using a substrate containing peptide 1 having 14 amino acid residues as follows: […](Ac)NleSTEG (SEQ ID NO: 1) wherein K(Ac) is an acetylated lysine residue and Nle is a norleucine. The peptide is labeled with the fluorophore MR121 (excitation 635 nm/emission 680 nm) at the C-terminus and biotin at the N-terminus. The sequence of the peptide substrate is based on p53 with several modifications. In particular, all arginine and leucine residues other than the acetylated lysine have replaced with serine so that the peptide is not susceptible to trypsin cleavage in the absence of deacetylation. In addition, the methionine residue naturally present in the sequence has been replaced with the norleucine because the methionine may be susceptible to oxidation during synthesis and purification. […] This peptide is labeled with the fluorophore MR121 (excitation 635 nm/emission 680 nm) at the C-termini and biotin at the N-termini. The sequence of the peptide substrates are based on p53 with several modifications. In particular, all arginine and leucine residues other than the acetylated lysine residues have replaced with serine so that the peptides are not susceptible to trypsin cleavage in the absence of deacetylation. In addition, the methionine residues naturally present in the sequences have been replaced with the norleucine because the methionine may be susceptible to oxidation during synthesis and purification. […] The peptide is labeled with the fluorophore 5TMR (excitation 540 nm/emission 580 nm) at the C-terminus. The sequence of the peptide substrate is also based on p53 with several modifications. In addition, the methionine residue naturally present in the sequence was replaced with the norleucine because the methionine may be susceptible to oxidation during synthesis and purification.
The peptide substrates were exposed to a sirtuin protein in the presence of NAD^+ to allow deacetylation of the substrate and render it sensitive to cleavage by trypsin. Trypsin was then added and the reaction was carried to completion (i.e., the deacetylated substrate is cleaved) releasing the MR121 or 5TMR fragment. Streptavidin is then added to the reaction where it can bind both the uncleaved substrate (i.e., any remaining acetylated substrate) and the non-fluorescent portion of the cleaved peptide substrate (i.e., the biotin containing fragment). The fluorescence polarization signal observed for the full length peptide substrates bound to streptavidin was higher than the fluorescence polarization signal observed for the released MR121 or 5TMR C-terminal fragment. In this way, the fluorescence polarization obtained is inversely proportional to the level of deacetylation (e.g., the signal is inversely proportional to the activity of the sirtuin protein). Results were read on a microplate fluorescence polarization reader (Molecular Devices Spectramax MD) with appropriate excitation and emission filters.
The fluorescence polarization assays using peptide 1 was conducted as follows: 0.5 μM peptide substrate and 150 μM βNAD^+ is incubated with 0.1 μg/mL of SIRT1 for 60 minutes at 37° C. in a reaction buffer (25 mM Tris-acetate pH8, 137 mM Na—Ac, 2.7 mM K—Ac, 1 mM Mg—Ac, 0.05% Tween-20, 0.1% Pluronic F127, 10 mM CaCl2, 5 mM DTT, 0.025% BSA, 0.15 mM Nicotinamide). Test compounds 1-18 were solubilized in DMSO and added to the reaction at 11 concentrations ranging from 0.7 μM to 100 μM. […]

NCI-H358 cells = assay: Cellular ATP Assay (ATPLite 1Step normalized to AlamarBlue viability); assay type: cell-based; conditions: for EC50 / IC50: Homo sapiens; for IC50: compounds that lowered intracellular ATP levels
Procedure: Cellular ATP levels are an indirect measurement of cellular metabolic rates and, by extension, mitochondrial function. […] The ATP assay is combined with a cellular viability assay so that cellular ATP levels can be normalized to viable cells. Cellular ATP levels were measured using the ATPLite 1Step Kit (PerkinElmer) and cellular viability was measured using the cell permeable dye, AlamarBlue™.
The Cellular ATP Assay is a multiplexed assay that measures both ATP levels and viability of a given cell sample. This assay is run in a 96-well Assay Plate and data are reported as the [ATP]/viability for each well in the Assay Plate.
The ATPLite 1 Step™ Kit is a single-step luminescent cell-based assay for detection of ATP. The kit contains lyophilized substrate mixture, comprised of D-luciferin and the firefly (Photinus pyralis) enzyme luciferase. Additionally, the kit contains a detergent-based reconstitution buffer that induces the lysis of cellular membranes. The luciferase in the assay mixture catalyzes a reaction between the free cellular ATP and D-luciferin to produce bioluminescence according to the schematic reaction outlined below. The amount of light produced is proportional to the cellular ATP concentration.
The AlamarBlue™ Assay is a single-step assay that utilizes a soluble, non-toxic, cell permeable dye that is added to cell growth media. This dye undergoes electron reduction in viable cells but not dead cells. The reduced dye product gives a fluorescent signal which can be monitored with a fluorescence plate reader (excitation 545 nm and emission 575 nm). The amount of fluorescence generated in a given well is proportional to the number of viable cells. The viability signal generated by this assay is used to normalize the ATP signal from the ATPLite 1Step™ assay results.
The material was dissolved in 100% vehicle (DMSO) to yield a final concentration of 10 mM (stock solution). The stock solution was serially diluted with 100% DMSO as described in SOP 7.10.
In this assay NCI-H358 cells (obtained from the American Tissue Culture Collection, ATCC) were seeded in 96 well microplates (10^4 cells/well). The NCI-H358 Growth Culture Media consists of RPMI 1640 Media supplemented with 10% FBS, […] streptomycin, and 100 units/mL penicillin. […] After 48 hours of compound treatment under cell growth conditions, plates were removed from incubator, and 15 μl of AlamarBlue™ dye was added to each well. Cell microplates were incubated with dye for 2 hours under growth conditions, and fluorescence was subsequently measured using a plate reader. Media containing AlamarBlue™ was removed, and plates were washed in 100 μl of PBS per well. This wash was removed, and 200 μl of 1×ATPLite 1Step reagent was added to each well. Luminescence was then measured using a plate reader. The ATP signal for each well, measured by the luminescence scan, was normalized to its corresponding cell viability value, measured by the fluorescence scan, to generate the average ATP level per viable cell unit (ATP/vCell). The ATP/vCell for each treatment was then normalized to the average vehicle ATP/vCell for its respective cell microplate, yielding the normalized ATP/vCell (norm. ATP/vCell). Finally, the norm. ATP/vCell for each unique treatment was averaged across plate replicates, generating the average norm. ATP/vCell.
Each of these ATP levels was normalized to the cell viability in the corresponding treatment well, generating the ATP/vCell value. Each ATP/vCell value was subsequently normalized to its average Vehicle ATP/vCell values for its respective cell microplate.
Data are represented as the normalized ATP/vCell (arbitrary units). […] These values represent an average of three plate replicates.
A number of compounds were screened for their affect on ATP levels in the assay as described in Example 5. […] NA means that the compound was not tested using the indicated assay.

SIRT1 [2] = target: T1, SIRT1; assay: SIRT1 mass spectrometry (MS) based deacetylation assay; assay type: biochemical; conditions: for FOLD ACT. MS: fold activation of SIRT1 as determined by MS
[3] = compounds that raised intracellular ATP levels, read-out: ED50 ATP ASSAY
[4] = SIRT1 activation, mass spectrometry assay, read-out: ED50 MS ASSAY

Row | SMILES | EC50 (NCI-H358 cells; [3]) [µM] | EC50 (SIRT1 [2]; [4]) [µM] | FOLD ACT. MS (SIRT1 [2]) | other results
1 | CN(C)c1cccc(C(=O)Nc2ccc(-c3nc4ncccc4o3)cc2)c1 [Compound 23] |  |  |  | IC50 (SIRT1 [1]): > 150 µM
2 | N#Cc1cccc(C(=O)Nc2ccc(-c3nc4ncccc4o3)cc2)c1 [Compound 25] |  |  |  | IC50 (SIRT1 [1]): 51 to 100 µM
3 | N#Cc1ccc(C(=O)Nc2ccc(-c3nc4ncccc4o3)cc2)cc1 [Compound 26] |  |  |  | IC50 (SIRT1 [1]): 51 to 100 µM
4 | O=C(Nc1ccc(-c2nc3ncccc3o2)cc1)c1ccccc1N1CCOCC1 [Compound 28] |  |  |  | IC50 (SIRT1 [1]): > 150 µM
5 | COc1cccc(C(=O)Nc2cccc(-c3nc4ncccc4o3)c2)c1C [Compound 49] | < 50 | 5 to 50 | B (B (Fold Activation <250%)) | 
6 | Cc1nc(-c2cccc(NC(=O)c3cccc(N(C)C)c3)c2)cs1 [Compound 79] | < 50 | > 150 |  | 
7 | O=C(Nc1ccc2c(c1)OCO2)Nc1cc(-c2nc3ccccc3o2)ccn1 [Compound 86, 1-Benzo[1,3]dioxol-5-yl-3-(4-benzoxazol-2-yl-pyridin-2-yl)-urea] | < 50 |  |  | EC50 (SIRT1 [2]): > 150 µM
8 | CN(C)c1cccc(C(=O)N2CCCN(c3nc4ccccc4o3)CC2)c1 [Compound 89] |  | > 150 |  | IC50 (NCI-H358 cells): < 50 µM
9 | COc1cc(C(=O)N2CCCN(c3nc4ccccc4o3)CC2)cc(OC)c1OC [Compound 91] |  | > 150 |  | IC50 (NCI-H358 cells): < 50 µM
10 | Cc1nc(-c2cccc(Nc3nc4ccccc4o3)c2)cs1 [Compound 92] |  | 5 to 50 | B (B (Fold Activation <250%)) | IC50 (NCI-H358 cells): 51 to 100 µM
11 | c1cc(Nc2nc3ccccc3o2)cc(-c2nc3ncccc3o2)c1 [Compound 93] | > 150 | 5 to 50 | B (B (Fold Activation <250%)) | 
12 | CN(C)c1cccc(C(=O)Nc2ccccc2-c2nc3ncccc3o2)c1 [Compound 97] | < 50 | < 5 | B (B (Fold Activation <250%)) | 
13 | O=C(Nc1cccc(-c2nc3ccncc3s2)c1)Nc1ccc2c(c1)OCO2 [Compound 99] | < 50 | < 5 | A (A (Fold activation >250%)) | 
14 | COc1ccc(NC(=O)c2cccc(-c3nc4ncccc4o3)c2)c(OC)c1 [Compound 100] | < 50 | 5 to 50 | B (B (Fold Activation <250%)) | 
15 | COc1ccc(NC(=O)c2cccc(-c3nc4ncccc4o3)c2)cc1OC [Compound 101] | 101 to 150 | 5 to 50 | A (A (Fold activation >250%)) | 
16 | COc1cc(NC(=O)c2cccc(-c3nc4ncccc4o3)c2)cc(OC)c1OC [Compound 102, 3-(oxazolo[4,5-b]pyridin-2-yl)-N-(3,4,5-trimethoxyphenyl)benzamide] | < 50 | 5 to 50 | A (A (Fold activation >250%)) | 
17 | c1cc(Nc2nc3ccccc3s2)nc(-c2nc3ncccc3o2)c1 [Compound 104] | < 50 | < 5 | B (B (Fold Activation <250%)) | 
18 | c1cc(Nc2nc3ccccc3o2)nc(-c2nc3ncccc3o2)c1 [Compound 105] | < 50 | < 5 | B (B (Fold Activation <250%)) | 
19 | COc1cc(C(=O)Nc2ccccc2-c2nc3ncccc3o2)cc(OC)c1OC [Compound 106] | < 50 | < 5 | B (B (Fold Activation <250%)) | 
20 | COc1cc(C(=O)Nc2cccc(-c3nc4ccncc4s3)c2)cc(OC)c1OC [Compound 115] | > 150 | 5 to 50 | A (A (Fold activation >250%)) | 
21 | COc1ccc(C(=O)Nc2cccc(-c3nc4cc(C)ccc4[nH]3)c2)cc1OC [Compound 117] |  | 5 to 50 | A (A (Fold activation >250%)) | IC50 (NCI-H358 cells): 51 to 100 µM
22 | COc1cc(C(=O)Nc2cc(CO)cc(-c3nc4ccncc4s3)c2)cc(OC)c1OC [Compound 135] | < 50 | < 5 | B (B (Fold Activation <250%)) | 
23 | Oc1ccc(C=Cc2cc(O)cc(O)c2)cc1 [resveratrol, reference compound] |  |  |  | maximum increase in cellular ATP levels (NCI-H358 cells; 48 hours treatment, at 50 μM resveratrol, normalized ATP/vCell): 3.0 fold; EC50 (NCI-H358 cells; 48 hours, 50% of the maximum increase in normalized ATP/vCell, read-out: EC50 ATP): 29 µM
